One data set has as its system cynomologus monkey eyes. Put plainly: IOP-lowering effect in cynomologus monkey eyes (lasered, ocular hypertensive). It is filed as in vivo. On the procedure: Compound II and PGF2α isopropyl ester (PGF2α iPr) were tested for IOP-lowering effect in cynomologus monkey eyes. The right eyes of the cynomologus monkeys in this study were previously given laser trabeculoplasty to induce ocular hypertension in the lasered eye. Animals had been trained to sit in restraint chairs and conditioned to accept experimental procedures without chemical restraint. IOP was determined with a pneumatonometer after light comeal anesthesia with dilute proparacaine. The test protocol included a five-dose b.i.d. treatment regimen because of the typical delayed response to prostaglandins. The test formulations were administered to the lasered right eyes, and the normal left eyes remained untreated for compound 11, or to both eyes for PGF2α isopropyl ester (PGF2α iPr). Baseline IOP values were determined prior to treatment with the test formulation, and IOP was determined 16 hours after the fourth dose for all compounds, 2, 4, and 6 hours after the fifth dose for compound II, and 1, 3 and 7 hours after the fifth dose for PGF2α iPr. Results are presented in Table 2 as the mean percent reduction of IOP from baseline +/- SEM. Prostaglandins were administered in 30 μL of test formulation.

Data set [1] concerns New Zealand (NZA) rabbit eye. Put plainly: ocular irritation in the New Zealand (NZA) rabbit (Hackett/McDonald scoring). In kind it is in vivo. On the procedure:
Compound II and PGF2α isopropyl ester (PGF2α iPr) were tested for ocular irritation in the New Zealand (NZA) rabbit. The prostaglandins were administered in 30 μL of test formulation. Conjunctival hyperemia, swelling and discharge were evaluated using a system devised to grossly compare the irritation potential of prostaglandins in the NZA rabbit. Using the Hackett/McDonald scoring system (Hackett, R. B. and McDonald, T. O. "Eye Irritation" in Dermatotoxicology, 4th edition, Marzulli, F. N. and Maibach, H. I. editors, Hemisphere Publishing Corp., Washington D.C. (1991)), conjunctival hyperemia, conjunctival swelling, and ocular discharge were graded using a slit-lamp prior to compound instillation and 1, 2, 3, and 5 hours after topical ocular instillation of the test compound. The percentage of eyes scoring +2 or greater for all time points was calculated for each parameter (conjunctival hyperemia, conjunctival swelling, and ocular discharge). To facilitate comparison, PGF2α iPr was administered at the same time as the test agent.

Data set [2] concerns intraocular pressure (IOP). To be noted: cited from earlier work.
Where [3] appears, read: 1.0 μg, topical ocular, administered at the same time as the test agent.
Setting [4] is: 1.0 μg, topical ocular, second of two values, administered at the same time as the test agent.
Setting [5] is: 3 μg, topical ocular, 1, 2, 3, 5 hours.
Setting [6] is: 10.0 μg, topical ocular, 1, 2, 3, 5 hours.

Molecules are shown by their SMILES. “Also recorded” adds a separate entry of the source.

For the compound `CCCCC[C@H](O)/C=C/[C@@H]1[C@@H](C/C=C\CCCC(=O)OC(C)C)[C@@H](O)C[C@H]1O` [PGF2α iPr, PGF2α isopropyl ester, reference compound], the “Percent IOP Reduction +/-SEM” value is reported as 27.6% in the data set on cynomologus monkey eyes (1.0 μg b.i.d., both eyes, 1 hour after fifth dose (1/5), baseline IOP 34.8 mm Hg); 38 +/- 1.7% in the data set on cynomologus monkey eyes (1.0 μg b.i.d., both eyes, 3 hours after fifth dose (3/5), baseline IOP 34.8 mm Hg); 25.6 +/- 14.4% with cynomologus monkey eyes (1.0 μg b.i.d., both eyes, 7 hours after fifth dose (7/5), baseline IOP 34.8 mm Hg); 5.8 +/- 4.0% in the data set on cynomologus monkey eyes (1.0 μg b.i.d., both eyes, 16 hours after fourth dose (16/4), baseline IOP 34.8 mm Hg). Further, the “% Incidence, Conjunctival Hyperemia (eyes scoring +2 or greater for all time points)” value in data set [1] (setting [3]) and in data set [1] (setting [4]) was 58% throughout. In addition, the “% Incidence, Conjunctival Swelling (eyes scoring +2 or greater for all time points)” value came to 67% in data set [1] (setting [3]) and 63% in data set [1] (setting [4]). The “% Incidence, Discharge (eyes scoring +2 or greater for all time points)” value in data set [1] (setting [3]) was 47%; in data set [1] (setting [4]) it was 48%. Also, the “ocular irritation / ocular side effects (in words)” value in data set [1] (Table 1) was “relatively high incidence of hyperemia, conjunctival swelling and discharge”.

Take `CCCCC[C@H](O)/C=C/[C@@H]1[C@@H](C/C=C\CCCC(=O)O)[C@@H](O)C[C@H]1O` [PGF2α]: the “IOP lowering (in words)” value in data set [2] (after topical ocular instillation, background) was “known to lower intraocular pressure (IOP)”. Also, in data set [2] (in vivo), the “side effects (in words)” value is given as “can cause conjunctival hyperemia and/or edema as well as inflammation”.

Consider `CC(C)OC(=O)CCC/C=C\C[C@@H]1[C@@H](SC[C@@H](O)COc2cccc(Cl)c2)[C@H](O)C[C@@H]1O` [Compound II, (5Z)-(9S, 11R, 15S)-9, 11, 15-trihydroxy-16-m-chlorophenoxy-13-thia-17,18, 19, 20-tetranor-5-prostenoic acid isopropyl ester], for which the “Percent IOP Reduction +/-SEM” value with cynomologus monkey eyes (1.0 μg b.i.d., 2 hours after fifth dose (2/5), baseline IOP 31.6 mm Hg) is given as 13.9 +/- 6.8%; in the data set on cynomologus monkey eyes (1.0 μg b.i.d., 4 hours after fifth dose (4/5), baseline IOP 31.6 mm Hg) it was 8.1 +/- 6.6%; in the data set with cynomologus monkey eyes (1.0 μg b.i.d., 6 hours after fifth dose (6/5), baseline IOP 31.6 mm Hg) it was 10 +/- 6.2%; in the data set with cynomologus monkey eyes (1.0 μg b.i.d., 16 hours after fourth dose (16/4), baseline IOP 31.6 mm Hg), 4.6 +/- 6.1%; in the data set on cynomologus monkey eyes (3.0 μg b.i.d., 2 hours after fifth dose (2/5), baseline IOP 32.2 mm Hg), 23.3%; in the data set on cynomologus monkey eyes (3.0 μg b.i.d., 4 hours after fifth dose (4/5), baseline IOP 32.2 mm Hg), 24.2 +/- 3.6%. The “Percent IOP Reduction +/-SEM” value is recorded as 24.9 +/- 3.4% with cynomologus monkey eyes (3.0 μg b.i.d., 6 hours after fifth dose (6/5), baseline IOP 32.2 mm Hg) and 18.0 +/- 3.0% in the data set on cynomologus monkey eyes (3.0 μg b.i.d., 16 hours after fourth dose (16/4), baseline IOP 32.2 mm Hg). Also, the “IOP reduction (in words)” value in the data set on cynomologus monkey eyes (for the time period tested, Table 2) is recorded as “significant degree of IOP reduction”. In addition, the results for the “% Incidence, Conjunctival Hyperemia (eyes scoring +2 or greater for all time points)” value in data set [1] (setting [5]) and in data set [1] (setting [6]) were 0% and 23%, respectively. The “% Incidence, Conjunctival Swelling (eyes scoring +2 or greater for all time points)” value in data set [1] (setting [5]) was found to be 30%; in data set [1] (setting [6]), 33%. Besides, the “% Incidence, Discharge (eyes scoring +2 or greater for all time points)” value is listed as 0% in data set [1] (setting [5]) and 5% in data set [1] (setting [6]). Further, the “ocular irritation / ocular side effects (in words)” value in data set [1] (Table 1) is “attenuates the ocular side effects; also recorded: low incidence of side effects”; in data set [1] (Table 1, listed as 11) it was “low incidence of ocular irritation”.

The values above are taken from patent US6172109A, “13-Thia prostaglandins for use in glaucoma therapy” (priority 1998, dated 2001).
